From patent publication US20070270418A1, “Inhibitors of P38 and Methods of Using the Same” (priority 2003, published 2007)

Tests used:
Assay in all cases: Broad selectivity panel, 32P incorporation
Type in all cases: biochemical
[1] = target: T1, CaMKIV (Homo sapiens, UniProt Q16566); conditions: 40 μM ATP, read-out: Percent inhibition CaMKIV; for inhibition at 0.1 µM: 0.1 μM compound; for inhibition at 1 µM: 1 μM compound
T1 construct: purchased Upstate (Charlottesville, Va.)
T1 sequence (Q16566 1-473): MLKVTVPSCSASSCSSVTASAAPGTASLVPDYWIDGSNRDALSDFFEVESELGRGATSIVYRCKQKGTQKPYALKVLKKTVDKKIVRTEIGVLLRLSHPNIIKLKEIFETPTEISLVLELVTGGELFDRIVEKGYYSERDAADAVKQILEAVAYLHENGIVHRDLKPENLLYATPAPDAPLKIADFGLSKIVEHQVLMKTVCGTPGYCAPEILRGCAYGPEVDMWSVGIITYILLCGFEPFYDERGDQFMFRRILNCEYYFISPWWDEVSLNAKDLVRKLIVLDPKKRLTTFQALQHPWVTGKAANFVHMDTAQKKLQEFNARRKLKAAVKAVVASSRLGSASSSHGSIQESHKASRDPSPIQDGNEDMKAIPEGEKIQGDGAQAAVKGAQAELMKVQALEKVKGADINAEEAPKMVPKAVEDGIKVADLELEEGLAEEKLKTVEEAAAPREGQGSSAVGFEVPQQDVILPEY
Protocol: (§1) Various compounds of the present invention are screened against a panel of 24 additional kinases (Upstate, Charlottesville, Va.). Compounds are tested 0.1 μM and 1 μM in reactions containing 40 μM ATP. Incorporation of radiolabeled phosphate (^32P) into each kinase substrate is measured in the presence and absence of test compound. Results are reported as the percent decrease in the amount of ^32P incorporated into the substrate in the presence of compound, compared to buffer control.

[2] = target: T2, FGFR3 (Homo sapiens, UniProt P22607); conditions: 40 μM ATP, read-out: Percent inhibition FGFR3; for inhibition at 0.1 µM: 0.1 μM compound; for inhibition at 1 µM: 1 μM compound
T2 construct: purchased Upstate (Charlottesville, Va.)
Protocol: as §1

[3] = target: T3, GSK3β (Homo sapiens, UniProt P49841); conditions: 40 μM ATP, read-out: Percent inhibition GSK3β; for inhibition at 0.1 µM: 0.1 μM compound; for inhibition at 1 µM: 1 μM compound
T3 construct: purchased Upstate (Charlottesville, Va.)
Protocol: as §1

[4] = target: T4, JNK1α1 (Homo sapiens, UniProt P45983); conditions: 40 μM ATP, read-out: Percent inhibition JNK1α1; for inhibition at 0.1 µM: 0.1 μM compound; for inhibition at 1 µM: 1 μM compound
T4 construct: purchased Upstate (Charlottesville, Va.)
Protocol: as §1

[5] = target: T5, Lyn (Homo sapiens, UniProt P07948); conditions: 40 μM ATP, read-out: Percent inhibition Lyn; for inhibition at 0.1 µM: 0.1 μM compound; for inhibition at 1 µM: 1 μM compound
T5 construct: purchased Upstate (Charlottesville, Va.)
Protocol: as §1

[6] = target: T6, MKK6 (Homo sapiens, UniProt P52564); conditions: 40 μM ATP, read-out: Percent inhibition MKK6; for inhibition at 0.1 µM: 0.1 μM compound; for inhibition at 1 µM: 1 μM compound
T6 construct: purchased Upstate (Charlottesville, Va.)
T6 sequence (P52564 1-334): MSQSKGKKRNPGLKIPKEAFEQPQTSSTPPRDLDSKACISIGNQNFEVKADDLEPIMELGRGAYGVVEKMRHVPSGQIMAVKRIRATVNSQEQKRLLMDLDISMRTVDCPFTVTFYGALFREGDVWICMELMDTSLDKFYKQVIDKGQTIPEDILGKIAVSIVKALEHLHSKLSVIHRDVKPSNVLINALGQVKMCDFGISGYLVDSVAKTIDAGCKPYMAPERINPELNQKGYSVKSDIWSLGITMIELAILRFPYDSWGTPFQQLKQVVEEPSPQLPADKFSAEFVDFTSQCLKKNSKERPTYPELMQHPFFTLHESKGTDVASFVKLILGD
Protocol: as §1

[7] = target: T7, PKA (Homo sapiens, UniProt P17612); conditions: 40 μM ATP, read-out: Percent inhibition PKA; for inhibition at 0.1 µM: 0.1 μM compound; for inhibition at 1 µM: 1 μM compound
T7 construct: purchased Upstate (Charlottesville, Va.)
Protocol: as §1

[8] = target: T8, PKB α (Homo sapiens, UniProt P31749); conditions: 40 μM ATP, read-out: Percent inhibition PKB α; for inhibition at 0.1 µM: 0.1 μM compound; for inhibition at 1 µM: 1 μM compound
T8 construct: purchased Upstate (Charlottesville, Va.)
Protocol: as §1

[9] = target: T9, PKBβ (Homo sapiens, UniProt P31751); conditions: 40 μM ATP, read-out: Percent inhibition PKBβ; for inhibition at 0.1 µM: 0.1 μM compound; for inhibition at 1 µM: 1 μM compound
T9 construct: purchased Upstate (Charlottesville, Va.)
Protocol: as §1

[10] = system: ROCK-II; conditions: 40 μM ATP
Protocol: as §1

[11] = target: T10, SAPK4 (Homo sapiens, UniProt O15264); conditions: 40 μM ATP, read-out: Percent inhibition SAPK4; for inhibition at 0.1 µM: 0.1 μM compound; for inhibition at 1 µM: 1 μM compound
T10 construct: purchased Upstate (Charlottesville, Va.)
T10 sequence (O15264 1-365): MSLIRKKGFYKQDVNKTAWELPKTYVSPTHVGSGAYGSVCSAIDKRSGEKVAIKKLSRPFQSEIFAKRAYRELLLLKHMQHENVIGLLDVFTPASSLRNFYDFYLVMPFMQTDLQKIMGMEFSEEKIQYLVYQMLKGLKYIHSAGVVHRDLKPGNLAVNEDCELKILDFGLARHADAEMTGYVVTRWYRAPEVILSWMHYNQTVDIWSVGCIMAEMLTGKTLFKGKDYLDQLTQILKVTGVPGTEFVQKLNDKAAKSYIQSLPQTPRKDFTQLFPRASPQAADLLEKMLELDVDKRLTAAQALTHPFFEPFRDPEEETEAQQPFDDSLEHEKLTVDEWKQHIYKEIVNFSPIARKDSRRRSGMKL
Protocol: as §1

[12] = target: T11, c-RAF (Homo sapiens, UniProt P04049); conditions: 40 μM ATP, read-out: Percent inhibition c-RAF; for inhibition at 0.1 µM: 0.1 μM compound; for inhibition at 1 µM: 1 μM compound
T11 construct: purchased Upstate (Charlottesville, Va.)
Protocol: as §1

[13] = system: p70S6K; conditions: 40 μM ATP
Protocol: as §1

T9 sequence (P31751 whole entry, species assumed): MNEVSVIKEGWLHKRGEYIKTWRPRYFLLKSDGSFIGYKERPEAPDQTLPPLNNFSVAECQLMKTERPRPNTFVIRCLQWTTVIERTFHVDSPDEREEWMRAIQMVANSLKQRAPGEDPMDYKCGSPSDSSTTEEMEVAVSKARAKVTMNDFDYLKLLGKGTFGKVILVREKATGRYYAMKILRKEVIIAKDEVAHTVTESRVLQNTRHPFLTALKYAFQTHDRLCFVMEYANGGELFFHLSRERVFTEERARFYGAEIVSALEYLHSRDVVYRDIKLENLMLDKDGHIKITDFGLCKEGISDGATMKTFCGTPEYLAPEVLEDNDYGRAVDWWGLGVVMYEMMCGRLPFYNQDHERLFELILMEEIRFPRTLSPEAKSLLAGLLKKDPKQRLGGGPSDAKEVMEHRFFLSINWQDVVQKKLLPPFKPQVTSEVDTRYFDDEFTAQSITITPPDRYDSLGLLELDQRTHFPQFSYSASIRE
T3 sequence (P49841 whole entry, species assumed): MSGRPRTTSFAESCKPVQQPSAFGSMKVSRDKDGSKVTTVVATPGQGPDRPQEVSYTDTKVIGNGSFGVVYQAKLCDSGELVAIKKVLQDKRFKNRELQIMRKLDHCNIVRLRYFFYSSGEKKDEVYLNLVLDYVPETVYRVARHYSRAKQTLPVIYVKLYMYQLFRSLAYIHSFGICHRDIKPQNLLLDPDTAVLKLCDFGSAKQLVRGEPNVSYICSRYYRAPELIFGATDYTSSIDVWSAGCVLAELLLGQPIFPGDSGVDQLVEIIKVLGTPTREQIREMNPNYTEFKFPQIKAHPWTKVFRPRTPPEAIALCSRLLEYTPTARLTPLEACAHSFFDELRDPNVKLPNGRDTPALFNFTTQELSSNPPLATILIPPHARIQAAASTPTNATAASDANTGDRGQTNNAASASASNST
T4 sequence (P45983 1-384 isoform P45983-2, species assumed): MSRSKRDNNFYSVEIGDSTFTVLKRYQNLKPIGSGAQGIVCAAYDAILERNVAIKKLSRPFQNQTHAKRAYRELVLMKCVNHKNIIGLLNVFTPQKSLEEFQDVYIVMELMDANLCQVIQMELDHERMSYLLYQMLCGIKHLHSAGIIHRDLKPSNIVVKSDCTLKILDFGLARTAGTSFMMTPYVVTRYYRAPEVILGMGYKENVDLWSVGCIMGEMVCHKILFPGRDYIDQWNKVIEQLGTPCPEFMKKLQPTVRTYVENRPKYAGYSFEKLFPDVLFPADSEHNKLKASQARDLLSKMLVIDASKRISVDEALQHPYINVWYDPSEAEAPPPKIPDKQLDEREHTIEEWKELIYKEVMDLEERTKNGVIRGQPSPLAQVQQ
T8 sequence (P31749 whole entry, species assumed): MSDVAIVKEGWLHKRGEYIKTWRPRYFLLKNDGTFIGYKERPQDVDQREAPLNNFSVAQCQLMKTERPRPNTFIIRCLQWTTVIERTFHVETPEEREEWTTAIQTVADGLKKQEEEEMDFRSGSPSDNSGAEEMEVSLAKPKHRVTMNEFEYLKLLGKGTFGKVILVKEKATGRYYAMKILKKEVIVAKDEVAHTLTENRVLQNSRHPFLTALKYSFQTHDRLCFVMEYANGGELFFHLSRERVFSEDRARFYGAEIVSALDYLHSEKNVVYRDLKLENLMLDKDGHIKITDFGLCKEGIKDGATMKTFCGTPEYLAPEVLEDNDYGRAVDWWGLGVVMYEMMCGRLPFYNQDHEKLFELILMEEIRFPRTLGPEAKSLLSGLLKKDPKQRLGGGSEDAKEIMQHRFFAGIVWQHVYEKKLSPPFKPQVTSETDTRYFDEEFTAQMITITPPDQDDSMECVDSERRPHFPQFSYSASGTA
T5 sequence (P07948 whole entry, species assumed): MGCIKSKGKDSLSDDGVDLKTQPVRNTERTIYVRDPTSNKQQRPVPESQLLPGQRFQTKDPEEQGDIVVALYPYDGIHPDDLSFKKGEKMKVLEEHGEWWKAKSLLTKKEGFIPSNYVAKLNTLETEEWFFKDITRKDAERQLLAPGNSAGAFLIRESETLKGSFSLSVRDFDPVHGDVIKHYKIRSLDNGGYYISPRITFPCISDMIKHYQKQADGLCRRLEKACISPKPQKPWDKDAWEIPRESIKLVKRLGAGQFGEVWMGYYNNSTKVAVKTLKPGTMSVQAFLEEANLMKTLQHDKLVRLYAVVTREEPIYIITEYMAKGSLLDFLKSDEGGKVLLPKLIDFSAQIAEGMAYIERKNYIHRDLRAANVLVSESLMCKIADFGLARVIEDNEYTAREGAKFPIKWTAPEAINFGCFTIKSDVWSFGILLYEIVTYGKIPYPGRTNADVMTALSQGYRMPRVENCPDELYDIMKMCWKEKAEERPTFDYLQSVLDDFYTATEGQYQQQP
T11 sequence (P04049 whole entry, species assumed): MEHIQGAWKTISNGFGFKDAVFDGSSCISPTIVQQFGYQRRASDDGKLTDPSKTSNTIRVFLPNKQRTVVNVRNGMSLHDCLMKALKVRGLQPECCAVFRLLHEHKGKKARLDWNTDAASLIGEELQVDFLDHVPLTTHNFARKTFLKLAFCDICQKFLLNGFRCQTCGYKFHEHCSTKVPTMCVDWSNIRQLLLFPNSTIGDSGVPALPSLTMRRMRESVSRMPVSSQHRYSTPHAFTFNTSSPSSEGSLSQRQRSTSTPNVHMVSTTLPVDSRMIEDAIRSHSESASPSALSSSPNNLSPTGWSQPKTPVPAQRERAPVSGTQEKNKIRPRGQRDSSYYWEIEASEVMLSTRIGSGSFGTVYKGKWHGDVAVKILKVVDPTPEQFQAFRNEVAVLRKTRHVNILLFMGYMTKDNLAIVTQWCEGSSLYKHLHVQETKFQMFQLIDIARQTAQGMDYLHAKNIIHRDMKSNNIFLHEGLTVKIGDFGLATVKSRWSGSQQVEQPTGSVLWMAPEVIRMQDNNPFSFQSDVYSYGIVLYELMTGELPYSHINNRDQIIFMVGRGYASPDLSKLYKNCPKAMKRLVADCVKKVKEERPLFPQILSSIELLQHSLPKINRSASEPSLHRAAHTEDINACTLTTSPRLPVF
T2 sequence (P22607 23-806, species assumed): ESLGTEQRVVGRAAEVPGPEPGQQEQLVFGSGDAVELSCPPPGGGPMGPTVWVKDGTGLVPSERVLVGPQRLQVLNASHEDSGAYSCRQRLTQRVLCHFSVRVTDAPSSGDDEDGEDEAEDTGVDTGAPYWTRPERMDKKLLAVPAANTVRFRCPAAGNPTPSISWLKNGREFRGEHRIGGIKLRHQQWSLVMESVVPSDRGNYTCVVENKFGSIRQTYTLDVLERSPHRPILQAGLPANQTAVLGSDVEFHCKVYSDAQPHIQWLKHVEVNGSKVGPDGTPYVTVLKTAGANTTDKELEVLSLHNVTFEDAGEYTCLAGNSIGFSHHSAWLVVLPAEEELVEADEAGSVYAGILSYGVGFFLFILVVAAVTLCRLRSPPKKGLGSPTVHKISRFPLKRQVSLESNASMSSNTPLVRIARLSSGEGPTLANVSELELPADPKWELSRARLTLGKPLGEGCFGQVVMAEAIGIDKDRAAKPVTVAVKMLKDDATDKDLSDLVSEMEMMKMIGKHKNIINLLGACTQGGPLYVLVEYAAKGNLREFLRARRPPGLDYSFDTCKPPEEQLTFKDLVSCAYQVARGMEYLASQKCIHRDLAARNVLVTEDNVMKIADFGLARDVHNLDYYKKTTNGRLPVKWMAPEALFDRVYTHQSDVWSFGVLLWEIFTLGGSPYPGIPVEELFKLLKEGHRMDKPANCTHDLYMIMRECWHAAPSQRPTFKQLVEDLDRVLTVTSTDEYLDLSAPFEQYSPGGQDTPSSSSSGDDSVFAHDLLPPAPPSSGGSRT

Structure (SMILES)	inhibition at 0.1 µM [1]	inhibition at 1 µM [1]	inhibition at 0.1 µM [2]	inhibition at 1 µM [2]	inhibition at 0.1 µM [3]	inhibition at 1 µM [3]	inhibition at 0.1 µM [4]	inhibition at 1 µM [4]	inhibition at 0.1 µM [5]	inhibition at 1 µM [5]	inhibition at 0.1 µM [6]	inhibition at 1 µM [6]	inhibition at 0.1 µM [7]	inhibition at 1 µM [7]	inhibition at 0.1 µM [8]	inhibition at 1 µM [8]	inhibition at 0.1 µM [9]	inhibition at 1 µM [9]	Percent inhibition ROCK-II ([10]; 0.1 μM compound)	Percent inhibition ROCK-II ([10]; 1 μM compound)	also measured
CN1[C@@H]2CC[C@H]1C[C@@H](Nc1nccc(-c3c(-c4ccc(F)cc4)nc4occn34)n1)C2 [CCLXXXI]	12%	33%	-27%	26%	6%	19%	-13%	6%	-6%	4%	19%	76%	-11%	-2%	-2%	6%	-12%	13%	10	9	inhibition at 0.1 µM [11]: 2%; inhibition at 1 µM [11]: 7%; inhibition at 0.1 µM [12]: -4%; inhibition at 1 µM [12]: 8%; Percent inhibition p70S6K ([13]; 0.1 μM compound): −16; Percent inhibition p70S6K ([13]; 1 μM compound): −10
Fc1ccc(-c2nc3occn3c2-c2ccnc(NC3CCNCC3)n2)cc1 [CCLXXX]	-10%	7%	-1%	13%	5%	14%	-26%	18%	-24%	27%	0%	62%	0%	11%	-1%	13%	-18%	13%	8	10	inhibition at 0.1 µM [11]: 0%; inhibition at 1 µM [11]: 6%; inhibition at 0.1 µM [12]: 21%; inhibition at 1 µM [12]: 75%; Percent inhibition p70S6K ([13]; 0.1 μM compound): 7; Percent inhibition p70S6K ([13]; 1 μM compound): 18
CN(C)CC(C)(C)CNc1nccc(-c2c(-c3ccc(F)cc3)nc3occn23)n1 [CXIX]	13%	7%	9%	-2%	11%	13%	-1%	-18%	2%	-12%	1%	75%	1%	-8%	11%	5%	-4%	-19%	16	−8	inhibition at 0.1 µM [11]: 3%; inhibition at 1 µM [11]: -4%; inhibition at 0.1 µM [12]: -3%; inhibition at 1 µM [12]: 3%; Percent inhibition p70S6K ([13]; 0.1 μM compound): 0; Percent inhibition p70S6K ([13]; 1 μM compound): −5
Fc1ccc(-c2nc3occn3c2-c2ccnc(N[C@@H]3CN4CCC3CC4)n2)cc1 [LXXI]	5%	6%	-1%	16%	-8%	10%	-20%	3%	4%	10%	-5%	80%	16%	11%	-5%	9%	-42%	-5%	−7	10	inhibition at 0.1 µM [11]: -1%; inhibition at 1 µM [11]: 3%; inhibition at 0.1 µM [12]: 7%; inhibition at 1 µM [12]: 42%; Percent inhibition p70S6K ([13]; 0.1 μM compound): −10; Percent inhibition p70S6K ([13]; 1 μM compound): 6

Now from value to compound, other results behind:

inhibition at 0.1 µM [1]	inhibition at 1 µM [1]	inhibition at 0.1 µM [2]	inhibition at 1 µM [2]	inhibition at 0.1 µM [3]	inhibition at 1 µM [3]	inhibition at 0.1 µM [4]	inhibition at 1 µM [4]	inhibition at 0.1 µM [5]	inhibition at 1 µM [5]	inhibition at 0.1 µM [6]	inhibition at 1 µM [6]	inhibition at 0.1 µM [7]	inhibition at 1 µM [7]	inhibition at 0.1 µM [8]	inhibition at 1 µM [8]	inhibition at 0.1 µM [9]	inhibition at 1 µM [9]	Structure (SMILES)	Percent inhibition ROCK-II ([10]; 0.1 μM compound)	Percent inhibition ROCK-II ([10]; 1 μM compound)	also measured
18%	-2%	9%	10%	15%	57%	37%	86%	-7%	-13%	8%	90%	6%	-2%	5%	6%	0%	-30%	CS(=O)(=O)N1CCC(Nc2nccc(-c3c(-c4ccc(F)cc4)nc4occn34)n2)CC1 [CCLXXIX]	10	12	inhibition at 0.1 µM [11]: 3%; inhibition at 1 µM [11]: 0%; inhibition at 0.1 µM [12]: 32%; inhibition at 1 µM [12]: 83%; Percent inhibition p70S6K ([13]; 0.1 μM compound): 9; Percent inhibition p70S6K ([13]; 1 μM compound): 10
8%	21%	19%	32%	16%	66%	-13%	61%	-26%	-29%	26%	83%	-6%	10%	-6%	4%	-3%	41%	CC(=O)N1CCC(Nc2nccc(-c3c(-c4ccc(F)cc4)nc4occn34)n2)CC1 [CCLXXVIII]	−6	6	inhibition at 0.1 µM [11]: -3%; inhibition at 1 µM [11]: -4%; inhibition at 0.1 µM [12]: 26%; inhibition at 1 µM [12]: 66%; Percent inhibition p70S6K ([13]; 0.1 μM compound): −11; Percent inhibition p70S6K ([13]; 1 μM compound): 4
